Results from patent publication US9809551B2, “Solid forms of Ivacaftor and processes for the preparation thereof” (Apotex Inc., priority 2013, dated 2017).

Assay: Storage stability of Ivacaftor APO-I polymorph at 25±2° C. / 60%±5% RH
Assay type: physicochemical
Procedure: Ivacaftor APO-I polymorph samples were packed in an inner antistatic polyethylene bag sealed with a cable tie encased within a heat sealed composite aluminum out bag under nitrogen within a HDPE drum. The samples were then tested for stability after storing at 25±2° C. with 60%±5% relative humidity (RH). Impurities, drug concentrations, polymorph stability and other parameters were measured at intervals during the storage.

For `CC(C)(C)c1cc(C(C)(C)C)c(NC(=O)c2c[nH]c3ccccc3c2=O)cc1O` [Ivacaftor APO-I polymorph, N-(2,4-di-tert-butyl-5-hydroxyphenyl)-1,4-dihydro-4-oxoquinoline-3-carboxamide], the “Assay (by HPLC)” value (12 months) was 99.8%, the Description (12 months) was “Off white” and the “Assay (by HPLC)” value (Initial) was 99.1%. For the same compound, the Description (Initial) was “Off white” and the “XRPD (polymorph stability)” value (Initial) was “APO-I”.
